A short description of this assay: FLIPR Tetra Assay: IC50 (effective concentration) of compounds on the human and rat TRPA1 channels were determined using a FLIPR Tetra instrument. CHO cells expressing TRPA1 were plated into 384-well plates, incubated overnight at 37° C., and loaded with BD calcium indicator dye for 1 hr at 37° C. followed by 15 minutes. at room temperature. The assay buffer was Hank's Balanced Salt Solution (HBSS) containing 20 mM HEPES (pH readjusted to 7.4) along with 0.02% BSA.Following dye load and plate cool down, compounds were added to the cells using FLIPR Tetra. Plates were then incubated with compounds for 20 minutes at room temperature prior to adding agonist. Following this incubation, ˜EC80 concentration of cinnamaldehyde (75 uM for human TRPA1 and 45 uM for rat TRPA1) was added to active the channels and block of cinnamaldehyde induced calcium influx was measured.
As to `O=C(NCc1cc(-c2cnc(C(F)(F)F)nc2)cnc1C(F)(F)F)[C@@H]1C2CC(C2)N1S(=O)(=O)c1ccc(F)cc1`, the IC50 amounted to 12.1 nM.

Turning to `O=C(NCc1cc(-c2cnc(C(F)(F)F)nc2)c(F)cn1)[C@@H]1C2CC(C2)N1S(=O)(=O)c1ccc(F)c(F)c1`, the IC50 is 10.6 nM.

In the case of `O=C(NCc1cc(-c2cnc(C(F)(F)F)nc2)ncc1Cl)[C@@H]1C2CC(C2)N1S(=O)(=O)c1ccc(F)cc1`, the IC50 turned out to be 6.08 nM. As for `O=C(NCc1cc(-c2cnc(C(F)(F)F)nc2)ncc1C1CC1)[C@@H]1C2CC(C2)N1S(=O)(=O)c1ccc(F)cc1`, the half-maximal inhibitory concentration (IC50) amounted to 16.3 nM.
